Laboratory results: ChEMBL document CHEMBL5390268, “α-Pyrone Derivatives from Calcarisporium arbuscula Discovered by Genome Mining” (J Nat Prod, 2023)
Active and inactive are the calls of the source. The rule behind the calls is not given here.

Assays:
B16 [1] = test: Cytotoxicity against mouse B16 cells assessed as inhibition of cell proliferation at 20 ug/ml incubated for 48 hrs by MTS assay; format: functional, cell-based; conditions: dose 20.0 µg/ml
Saccharomyces cerevisiae = test: Antimicrobial activity against Saccharomyces cerevisiae assessed as fungal growth inhibition by absorbance based assay; format: functional, organism-based
Bacillus subtilis = test: Antimicrobial activity against Bacillus subtilis assessed as bacterial growth inhibition incubated for 24 hrs by absorbance based assay; format: functional, organism-based
HepG2 [2] = test: Cytotoxicity against human HepG2 cells assessed as inhibition of cell proliferation at 20 ug/ml incubated for 48 hrs by MTS assay; format: functional, cell-based; conditions: dose 20.0 µg/ml
Candida albicans = test: Antimicrobial activity against Candida albicans assessed as fungal growth inhibition by absorbance based assay; format: functional, organism-based
Staphylococcus aureus = test: Antimicrobial activity against Staphylococcus aureus assessed as bacterial growth inhibition incubated for 24 hrs by absorbance based assay; format: functional, organism-based
Escherichia coli = test: Antimicrobial activity against Escherichia coli assessed as bacterial growth inhibition incubated for 24 hrs by absorbance based assay; format: functional, organism-based
HCT-116 [3] = test: Cytotoxicity against human HCT-116 cells assessed as inhibition of cell proliferation at 20 ug/ml incubated for 48 hrs by MTS assay; format: functional, cell-based; conditions: dose 20.0 µg/ml
HepG2 [4] = test: Cytotoxicity against human HepG2 cells assessed as inhibition of cell proliferation incubated for 48 hrs by MTS assay; format: functional, cell-based; conditions: HepG2, 48 h
HCT-116 [5] = test: Cytotoxicity against human HCT-116 cells assessed as inhibition of cell proliferation incubated for 48 hrs by MTS assay; format: functional, cell-based; conditions: HCT-116, 48 h
B16 [6] = test: Cytotoxicity against mouse B16 cells assessed as inhibition of cell proliferation incubated for 48 hrs by MTS assay; format: functional, cell-based; conditions: B16, 48 h

For `CCCCC[C@@H](O)[C@H](O)c1cc(OC)cc(=O)o1`, the inhibition (B16 [1]) was “inactive”, the inhibition (Saccharomyces cerevisiae) was “inactive” and the inhibition (Bacillus subtilis) was “inactive”. The inhibition (HepG2 [2]) was “inactive”, the inhibition (Candida albicans) was “inactive” and the inhibition (Staphylococcus aureus) was “inactive”. For the same compound, the inhibition (Escherichia coli) was “inactive” and the inhibition (HCT-116 [3]) was “inactive”.

In the case of `C/C=C/CC[C@@H](O)[C@H](O)c1cc(OC)cc(=O)o1`, the inhibition (B16 [1]) is reported as “inactive”, the inhibition (Saccharomyces cerevisiae) is reported as “inactive” and the inhibition (Bacillus subtilis) is reported as “inactive”. The inhibition (HepG2 [2]) was “inactive”, the inhibition (Candida albicans) was “inactive” and the inhibition (Staphylococcus aureus) was “inactive”. The inhibition (Escherichia coli) was “inactive” and the inhibition (HCT-116 [3]) was “inactive”.

For `C/C=C/CC/C=C/c1cc(OC)cc(=O)o1`, the IC50 (HepG2 [4]) was 41.8 µM, the IC50 (HCT-116 [5]) was 21.7 µM and the inhibition (Saccharomyces cerevisiae) was “inactive”. The IC50 (B16 [6]) was 38.5 µM, the inhibition (Bacillus subtilis) was “inactive” and the inhibition (Candida albicans) was “inactive”. For the same compound, the inhibition (Staphylococcus aureus) was “inactive” and the inhibition (Escherichia coli) was “inactive”.

For `CCCCC/C=C/c1cc(OC)cc(=O)o1`, the inhibition (B16 [1]) was “inactive”, the inhibition (Saccharomyces cerevisiae) was “inactive” and the inhibition (Bacillus subtilis) was “inactive”. For the same compound, the inhibition (HepG2 [2]) was “inactive”, the inhibition (Candida albicans) was “inactive” and the inhibition (Staphylococcus aureus) was “inactive”. For the same compound, the inhibition (Escherichia coli) was “inactive” and the inhibition (HCT-116 [3]) was “inactive”.
